# Results taken from patent US11357834B2, “Recombinant α-galactosidase A for treatment of Fabry disease” (Amicus Therapeutics, Inc., priority 2017, dated 2022).
# Legend:
# GL-3 and plasma lyso-Gb3 [1] = experiment: Substrate reduction seven days after single administration (Example 6); type: in vivo, Gla KO mice; settings: 3 mg/kg enzyme
# Description: The effect on substrate reduction when combining these enzymes in a co-formulation with migalastat was also assessed. […]
# In addition to assessment of enzyme activity in tissues, the degree of substrate reduction seven days post-administration was determined.
# [2] = Predicted human migalastat exposure after single IV dose and exposure margins
# Text: (§1) Selection of Doses in the Study: The current single dose levels were selected on the basis of predicted human PK following IV dosing, non-clinical safety margins, and target therapeutic migalastat exposures for efficacy.
# [3] = General toxicology NOAEL, rat; parameters: AUC: dose or concentration left out as unconfirmed; settings: in vivo
# in vivo = settings: monkey, 500 mg/kg/day
# Text: as §1
# [4] = Phase 1 IV and oral migalastat HCl pharmacokinetics in healthy volunteers; type: in vivo, human
# Description: Healthy volunteers received migalastat HCl via the IV route of administration to evaluate safety, tolerability, and pharmacokinetics. Another study was performed to determine the absolute bioavailability of migalastat after an oral capsule dose as compared to an IV administered dose of migalastat HCl in healthy volunteers.
# Type of Study: This Phase 1 study was a single-center study consisting of 2 designs. Cohorts 1, 2, and 3 were performed according to a randomized, double-blind, placebo-controlled, single ascending dose (SAD) IV study design to evaluate the safety, tolerability, and PK of IV administered migalastat HCl or IV administered placebo in healthy subjects. Cohort 4 was an open-label, randomized two-way crossover arm designed to assess the absolute bioavailability of orally administered migalastat HCl relative to IV administered migalastat HCl in healthy subjects.
# Cohorts 1, 2, 3: Subjects in Cohorts 1, 2, and 3 received IV administered single ascending doses of migalastat HCl. Seven subjects were enrolled into each cohort (5 subjects randomized to migalastat HCl and 2 subjects randomized to placebo). Dosing of Cohorts 1, 2, and 3 was staggered to allow for safety and tolerability review before proceeding with the next group. Therefore, Cohorts 1, 2, and 3 were each divided into 2 sub-groups: Group A (2 subjects randomized to migalastat HCl and 1 subject randomized to placebo) and Group B (3 subjects randomized to migalastat HCl and 1 subject randomized to placebo). Subjects in Group B were dosed the day following completion of Group A dosing. Except for Cohort 3B, which was dosed 31 days after Cohort 3A because an interim PK review was performed on emerged data from Cohort 3A.
# Cohort 4 was randomized such that 5 subjects received the oral formulation and 5 subjects received the IV formulation during Period 1, followed by the alternate formulation during Period 2. • *During Period 1, all Day −1 through Day 3 assessments were performed. ** The washout period was 7 days. *** During Period 2, subjects repeated all Day −1 through Day 3 assessments.
# Subjects enrolled in Cohorts 1, 2, and 3 were randomized to receive one of the following doses of migalastat HCl (n=5) or placebo (n=2):
# [5] = human, in vivo, po, 1250 mg
# [6] = cited from earlier work
# GL-3 = GL-3 one week after single IV administration (Example 7); type: in vivo, Gla KO mice; settings: 1 mg/kg enzyme IV, one week post-administration
# Description: Gla KO mice were administered 1 mg/kg of enzyme IV and GL-3 measured one week post-administration.
# GL-3 and plasma lyso-Gb3 [7] = experiment: Repeat administration efficacy, two bi-weekly IV administrations (Example 9); type: in vivo, Gla KO mice; settings: enzyme alone, 1 to 10 mg/kg
# Description: The efficacy of rhα-Gal A 01-003 with and without migalastat and Fabrazyme (agalsidase beta) were compared. Enzyme was administered via a bolus infusion into Gla KO mice with or without co-formulation with 3 mg/kg migalastat. ˜16 week old male Gla KO mice (n=8; 72 in total) were given two bi-weekly IV administrations.
# GL-3 and plasma lyso-Gb3 [8] = experiment: Single bolus IV administration efficacy, necropsy 7 days after dose (Example 10); type: in vivo, Gla KO mice
# Description: The efficacy of rhα-Gal A 01-003 with and without migalastat and Fabrazyme (agalsidase beta) were compared. Enzyme was administered via a single bolus infusion into Gla KO mice with or without co-formulation with migalastat. ˜18 week old male Gla KO mice (7 per group) were given a single bolus IV administration and necropsies were performed 7 days after dose. The treatment groups are shown in Table 15 and the results are shown in FIGS. 21A-21D and Tables 16-19.
compound,measurement,setting,value
rhα-Gal A 04-023: recombinant human α-galactosidase A produced by CHO cell clone 04-023,plasma lyso-Gb3 compared to Fabrazyme alone (1 mg/kg),GL-3 and plasma lyso-Gb3 [1]; seven days,significantly lower levels of plasma lyso-Gb3
same,reduction of GL-3 in heart tissue compared to 1 mg/kg Fabrazyme,GL-3 and plasma lyso-Gb3 [1]; seven days (FIG. 15A),significantly enhanced reduction of GL-3
same,reduction in GL-3 in kidney,GL-3 and plasma lyso-Gb3 [1]; seven days (FIG. 15B),enhanced substrate reduction
same,GL-3 in skin compared to Fabrazyme alone (1 mg/kg),GL-3 and plasma lyso-Gb3 [1]; seven days (FIG. 15C),significantly lower level of GL-3 in skin
"Cl.OC[C@H]1NC[C@H](O)[C@@H](O)[C@H]1O [Migalastat HCl, migalastat HCl]","Fold Cover to AUC from human oral 1250 mg, Max",[2]; 0.3 mg/kg IV,62
same,"Fold Cover to AUC from human oral 1250 mg, Median",[2]; 0.3 mg/kg IV,39
same,"Fold Cover to AUC from human oral 1250 mg, Min",[2]; 0.3 mg/kg IV,15.5
same,"Fold Cover to Cmax from human oral 1250 mg, Max",[2]; 0.3 mg/kg IV,61
same,"Fold Cover to Cmax from human oral 1250 mg, Median",[2]; 0.3 mg/kg IV,36
same,"Fold Cover to Cmax from human oral 1250 mg, Min",[2]; 0.3 mg/kg IV,2.6
same,"Fold Cover to NOAEL AUC, Monkey",[2]; 0.3 mg/kg IV,165
same,"Fold Cover to NOAEL AUC, Rat",[2]; 0.3 mg/kg IV,134
same,"Fold Cover to NOAEL Cmax, Monkey",[2]; 0.3 mg/kg IV,68
same,"Fold Cover to NOAEL Cmax, Rat",[2]; 0.3 mg/kg IV,65
same,"Fold Cover to AUC from human oral 1250 mg, Max",[2]; 10.0 mg/kg IV,1.89
same,"Fold Cover to AUC from human oral 1250 mg, Median",[2]; 10.0 mg/kg IV,1.19
same,"Fold Cover to AUC from human oral 1250 mg, Min",[2]; 10.0 mg/kg IV,0.47
same,"Fold Cover to Cmax from human oral 1250 mg, Max",[2]; 10.0 mg/kg IV,1.81
same,"Fold Cover to Cmax from human oral 1250 mg, Median",[2]; 10.0 mg/kg IV,1.07
same,"Fold Cover to Cmax from human oral 1250 mg, Min",[2]; 10.0 mg/kg IV,0.08
same,"Fold Cover to NOAEL AUC, Monkey",[2]; 10.0 mg/kg IV,4.98
same,"Fold Cover to NOAEL AUC, Rat",[2]; 10.0 mg/kg IV,4.05
same,"Fold Cover to NOAEL Cmax, Monkey",[2]; 10.0 mg/kg IV,2.02
same,"Fold Cover to NOAEL Cmax, Rat",[2]; 10.0 mg/kg IV,1.93
same,AUC,[3],249 µg·h/mL
same,Cmax at Rat NOAEL,[3]; 1500 μg/kg/day,23400 ng/mL
same,AUC,in vivo,306 µg·h/mL
same,"maximum arithmetic mean plasma concentration, IV dosing relative to oral dosing",[4]; 150 mg IV vs 150 mg oral,approximately 2 fold
same,time of maximum arithmetic mean plasma concentration after start of infusion,"[4]; IV 150 mg, 2-hour infusion",2 h
same,dose dependence of mean plasma concentration-time profiles,[4]; increasing IV doses 0.3 to 10 mg/kg,clear dose-dependent increase in plasma concentrations
same,time of maximum arithmetic mean plasma concentration after start of infusion,"[4]; single 2-hour IV infusion, 0.3 to 10 mg/kg",2 h
same,Maximum observed individual AUC,[5],115.9 µg·h/mL
same,Maximum observed individual Cmax,[5],21900 ng/mL
same,Median observed individual AUC,[5],73.2 µg·h/mL
same,Median observed individual Cmax,[5],13000 ng/mL
same,Minimum observed individual AUC,[5],28.9 µg·h/mL
same,Minimum observed individual Cmax,[5],4780 ng/mL
same,maximum exposure (AUC),[5],116 µg·h/mL
same,exposure linearity,"[6]; oral administrations, to 1250 mg",linear exposures
same,tissue uptake of active α-Gal A into skin,"[6]; phase 2a, 23 Fabry patients, single oral 150 mg co-administered with 0.2, 0.5, and 1.0 mg/kg agalsidase",improved tissue uptake of active α-Gal A into skin
rhα-Gal A 01-003: recombinant human α-galactosidase A produced by CHO cell clone 01-003,α-Gal A substrate (GL-3) in heart and kidney,GL-3,able to reduce α-Gal A substrate in heart and kidney
same,"GL-3 in heart and kidney, dose-response",GL-3 and plasma lyso-Gb3 [7],good dose-response
same,"GL-3 in skin and plasma lyso-GB3, dose-response",GL-3 and plasma lyso-Gb3 [7],good dose-response
same,GL-3 levels Heart,GL-3 and plasma lyso-Gb3 [8]; 10 mg/kg,30.30 μg/g tissue
same,GL-3 levels Kidney,GL-3 and plasma lyso-Gb3 [8]; 10 mg/kg,277 μg/g tissue
same,GL-3 levels Skin,GL-3 and plasma lyso-Gb3 [8]; 10 mg/kg,149 μg/g tissue
same,Heart GL-3 % reduction compared to Fabrazyme (10 mg/kg),GL-3 and plasma lyso-Gb3 [8]; 10 mg/kg,43.05%
same,Kidney GL-3 % reduction compared to Fabrazyme (10 mg/kg),GL-3 and plasma lyso-Gb3 [8]; 10 mg/kg,1.42%
same,Plasma lyso-Gb3 % reduction compared to Fabrazyme (10 mg/kg),GL-3 and plasma lyso-Gb3 [8]; 10 mg/kg,2.71%
same,Plasma lyso-Gb3 levels,GL-3 and plasma lyso-Gb3 [8]; 10 mg/kg,28.7 ng/mL
same,Skin GL-3 % reduction compared to Fabrazyme (10 mg/kg),GL-3 and plasma lyso-Gb3 [8]; 10 mg/kg,28.02%
same,overall substrate reduction (GL-3 and lyso-Gb3),GL-3 and plasma lyso-Gb3 [8]; rhα-Gal A 10 mg/kg,greater substrate reduction than an equivalent dose of Fabrazyme
Fabrazyme: homodimeric recombinant human α-Gal A marketed by Genzyme under the name Fabrazyme,"GL-3 in heart and kidney, dose-response",GL-3 and plasma lyso-Gb3 [7],good dose-response
same,"GL-3 in skin and plasma lyso-GB3, dose-response",GL-3 and plasma lyso-Gb3 [7],good dose-response
same,GL-3 levels Heart,GL-3 and plasma lyso-Gb3 [8]; 1 mg/kg,183.23 μg/g tissue
same,GL-3 levels Kidney,GL-3 and plasma lyso-Gb3 [8]; 1 mg/kg,443 μg/g tissue
same,GL-3 levels Skin,GL-3 and plasma lyso-Gb3 [8]; 1 mg/kg,1465 μg/g tissue
same,Plasma lyso-Gb3 levels,GL-3 and plasma lyso-Gb3 [8]; 1 mg/kg,122 ng/mL
same,GL-3 levels Heart,GL-3 and plasma lyso-Gb3 [8]; 10 mg/kg,53.20 μg/g tissue
same,GL-3 levels Kidney,GL-3 and plasma lyso-Gb3 [8]; 10 mg/kg,281 μg/g tissue
same,GL-3 levels Skin,GL-3 and plasma lyso-Gb3 [8]; 10 mg/kg,207 μg/g tissue
same,Plasma lyso-Gb3 levels,GL-3 and plasma lyso-Gb3 [8]; 10 mg/kg,29.5 ng/mL
same,GL-3 levels Heart,GL-3 and plasma lyso-Gb3 [8]; 25 mg/kg,21.10 μg/g tissue
same,GL-3 levels Kidney,GL-3 and plasma lyso-Gb3 [8]; 25 mg/kg,203 μg/g tissue
same,GL-3 levels Skin,GL-3 and plasma lyso-Gb3 [8]; 25 mg/kg,102 μg/g tissue
same,Plasma lyso-Gb3 levels,GL-3 and plasma lyso-Gb3 [8]; 25 mg/kg,18.1 ng/mL
